Measured values reported in US8299048B2, “Hexahydrocyclopentyl[f]indazole sulfonamides and derivatives thereof as selective glucocorticoid receptor modulators” (Merck Sharp & Dohme Corp., priority 2008, dated 2012).

Molecular target: T1, glucocorticoid receptor (Homo sapiens, UniProt P04150)
T1 construct: endogenous in cells
T1 sequence (P04150 1-777): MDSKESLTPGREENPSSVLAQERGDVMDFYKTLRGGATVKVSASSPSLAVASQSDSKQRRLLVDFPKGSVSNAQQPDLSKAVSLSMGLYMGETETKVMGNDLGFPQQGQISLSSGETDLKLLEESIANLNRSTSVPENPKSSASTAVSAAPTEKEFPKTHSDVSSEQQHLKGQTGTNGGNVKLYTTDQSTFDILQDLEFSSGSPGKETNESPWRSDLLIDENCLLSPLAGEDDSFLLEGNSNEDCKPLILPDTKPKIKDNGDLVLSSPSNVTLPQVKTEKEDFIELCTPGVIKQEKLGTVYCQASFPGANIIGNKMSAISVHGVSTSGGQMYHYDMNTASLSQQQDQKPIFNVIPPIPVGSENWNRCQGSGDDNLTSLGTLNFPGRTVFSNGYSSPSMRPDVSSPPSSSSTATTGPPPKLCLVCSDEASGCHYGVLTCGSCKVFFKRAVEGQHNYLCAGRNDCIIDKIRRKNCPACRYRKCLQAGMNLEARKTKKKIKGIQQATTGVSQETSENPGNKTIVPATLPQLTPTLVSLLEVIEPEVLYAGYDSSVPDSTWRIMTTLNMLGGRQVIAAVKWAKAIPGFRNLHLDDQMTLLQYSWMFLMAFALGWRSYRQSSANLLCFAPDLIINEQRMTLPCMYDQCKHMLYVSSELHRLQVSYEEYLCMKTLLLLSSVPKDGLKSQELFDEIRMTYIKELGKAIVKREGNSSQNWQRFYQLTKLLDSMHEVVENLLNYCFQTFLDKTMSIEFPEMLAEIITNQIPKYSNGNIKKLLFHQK
Assay: Ligand binding assay (GR BIND)
Outline: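 Displacement of tritiated dexamethasone (6 nM trace solution) from receptor in cell supernatant was measured after overnight incubation at 4 °C in molybdate-containing TEGM, pH 7.2, 2% ethanol. Hydroxylapatite pulled down the receptor–ligand complex for filter washing and scintillation counting, with dexamethasone as reference.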

Compound	Ki [nM]
C[C@]12Cc3cnn(-c4ccc(F)cc4)c3C=C1CC[C@@H]2CN(CC#N)S(=O)(=O)c1ccc(-c2ccccc2)cc1 [Example 42, N-(cyanomethyl)-N-{[(4αR,5S)-1-(4-fluorophenyl)-4α-methyl-1,4,4α,5,6,7-hexahydrocyclopenta[f]indazol-5-yl]methyl}biphenyl-4-sulfonamide]	5.9
Cc1noc(C)c1S(=O)(=O)N(CCCc1ccccc1)C[C@H]1CCC2=Cc3c(cnn3-c3ccc(F)cc3)C[C@@]21C [Example 194, N-{[(4αR,5S)-1-(4-fluorophenyl)-4α-methyl-1,4,4α,5,6,7-hexahydrocyclopenta[f]indazol-5-yl]methyl}-3,5-dimethyl-N-(3-phenylpropyl)isoxazole-4-sulfonamide]	1.5
COC(=O)c1ccccc1CS(=O)(=O)N(CCc1ccccc1F)C[C@H]1CCC2=Cc3c(cnn3-c3ccc(F)cc3)C[C@@]21C [Example 188, methyl 2-{[([2-(2-fluorophenyl)ethyl]{[(4αR,5S)-1-(4-fluorophenyl)-4α-methyl-1,4,4α,5,6,7-hexahydrocyclopenta[f]indazol-5-yl]methyl}amino)sulfonyl]methyl}benzoate]	1.2
CN1CCOc2cc(S(=O)(=O)N(CC#N)C[C@H]3CCC4=Cc5c(cnn5-c5ccc(F)cc5)C[C@@]43C)ccc21 [Example 39, N-(cyanomethyl)-N-{[(4αR,5S)-1-(4-fluorophenyl)-4α-methyl-1,4,4α,5,6,7-hexahydrocyclopenta[f]indazol-5-yl]methyl}-4-methyl-3,4-dihydro-2H-1,4-benzoxazine-7-sulfonamide]	8.1
CCS(=O)(=O)N(CCOC)C[C@H]1CCC2=Cc3c(cnn3-c3ccc(F)cc3)C[C@@]21C [Example 171, N-{[(4αR,5S)-1-(4-fluorophenyl)-4α-methyl-1,4,4α,5,6,7-hexahydrocyclopenta[f]indazol-5-yl]methyl}-N-(2-methoxyethyl)ethanesulfonamide]	7
C[C@]12Cc3cnn(-c4ccc(F)cc4)c3C=C1CC[C@@H]2CN(CCCc1ccccc1)S(=O)(=O)CC(F)(F)F [Example 193, 2,2,2-trifluoro-N-{[(4αR,5S)-1-(4-fluorophenyl)-4α-methyl-1,4,4α,5,6,7-hexahydrocyclopenta[f]indazol-5-yl]methyl}-N-(3-phenylpropyl)ethanesulfonamide]	1
C[C@]12Cc3cnn(-c4ccc(F)cc4)c3C=C1CC[C@@H]2CN(CC#N)S(=O)(=O)c1ccc(F)c(Cl)c1 [Example 20, 3-chloro-N-(cyanomethyl)-4-fluoro-N-{[(4αR,5S)-1-(4-fluorophenyl)-4α-methyl-1,4,4α,5,6,7-hexahydrocyclopenta[f]indazol-5-yl]methyl}benzenesulfonamide]	2.2
C[C@]12Cc3cnn(-c4ccc(F)cc4)c3C=C1CC[C@@H]2CN(CCO)S(=O)(=O)c1ccc(F)c(Cl)c1 [Example 19, 3-chloro-4-fluoro-N-{[(4αR,5S)-1-(4-fluorophenyl)-4α-methyl-1,4,4α,5,6,7-hexahydrocyclopenta[f]indazol-5-yl]methyl}-N-(2-hydroxyethyl)benzenesulfonamide]	4
CN(C[C@H]1CCC2=Cc3c(cnn3-c3ccc(F)cc3)C[C@@]21C)S(=O)(=O)CC(F)(F)F [Example 177, 2,2,2-trifluoro-N-{[(4αR,5S)-1-(4-fluorophenyl)-4α-methyl-1,4,4α,5,6,7-hexahydrocyclopenta[f]indazol-5-yl]methyl}-N-methylethanesulfonamide]	1.6
CNC(=O)Nc1ccc(S(=O)(=O)N(CC2CC2)C[C@H]2CCC3=Cc4c(cnn4-c4ccc(F)cc4)C[C@@]32C)c(Cl)c1 [Example 14, 2-chloro-N-(cyclopropylmethyl)-N-{[(4αR,5S)-1-(4-fluorophenyl)-4α-methyl-1,4,4α,5,6,7-hexahydrocyclopenta[f]indazol-5-yl]methyl}-4-{[(methylamino)carbonyl]amino}-benzenesulfonamide]	1.6
